In patent US20080113946A1, “N-aryl-5,7-dihydrofuro[3,4-d]pyrimidin-4-amines and analogs as activators of caspases and inducers of apoptosis and the use thereof” (Cyntovia, Inc., priority 2006, published 2008):
pEC50: −log10 of the molar value.

Tests used:
Assay type in all cases: cell-based
[1] = system: Human breast cancer cell line T-47D; assay: Caspase cascade activation (Ac-DEVD-R110 fluorogenic substrate) in T-47D cells; details: T47D, T-47D, incubated 24 or 48 h (Table I), 0.016 to 10 μM final, read-out: Caspase Activation Potency EC50 T-47D
Description: (§1) Human breast cancer cell line T-47D, human hepatocellular carcinoma cell line SNU398 and human colon carcinoma cell line HCT116 were grown according to media component mixtures designated by American Type Culture Collection+10% FCS (Invitrogen Corporation), in a 5% CO2-95% humidity incubator at 37° C. T-47D and H1299 cells were maintained at a cell density between 50 and 80% confluency at a cell density of 0.1 to 0.6×10^6 cells/mL. Cells were harvested at 600×g and resuspended at 0.65×10^6 cells/mL into appropriate media+10% FCS. An aliquot of 22.5 μL of cells was added to a well of a 384-well microtiter plate containing 2.5 μL of a 10% DMSO in RPMI-1640 media solution containing 0.16 to 100 μM of 5,7-dihydro-N-(3,5-dimethoxyphenyl)-2-(methylthio)furo[3,4-d]pyrimidin-4-amine or other test compound (0.016 to 10 μM final). An aliquot of 22.5 μL of cells was added to a well of a 384-well microtiter plate containing 2.5 μL of a 10% DMSO in RPMI-1640 media solution without test compound as the control sample. The samples were mixed by agitation and then incubated at 37° C. for 24 or 48 h in a 5% CO2-95% humidity incubator. After incubation, the samples were removed from the incubator and 25 μL of a solution containing 14 μM of N-(Ac-DEVD)-N′-ethoxycarbonyl-R110 (SEQ ID No.:1) fluorogenic substrate (Cytovia, Inc.; WO99/18856), 20% sucrose (Sigma), 20 mM DTT (Sigma), 200 mM NaCl (Sigma), 40 mM Na PIPES buffer pH 7.2 (Sigma), and 500 µg/mL lysolecithin (Calbiochem) was added. The samples were mixed by agitation and incubated at room temperature. Using a fluorescent plate reader (Model SPECTRAfluor Plus, Tecan), an initial reading (T=0) was made approximately 1-2 min after addition of the substrate solution, employing excitation at 485 nm and emission at 530 nm, to determine the background fluorescence of the control sample. After the 3 h incubation, the samples were read for fluorescence as above (T=3 h).
(§2) The Relative Fluorescence Unit values (RFU) were used to calculate the sample readings as follows: RFU(T=3h)−Control RFU(T=0)=Net RFU(T=3h)
(§3) The activity of caspase cascade activation was determined by the ratio of the net RFU value for 5,7-dihydro-N-(3,5-dimethoxyphenyl)-2-(methylthio)furo[3,4-d]pyrimidin-4-amino or other test compound to that of control samples. The EC50 (nM) was determined by a sigmoidal dose-response calculation (Prism 3.0, GraphPad Software Inc.).

[2] = system: human colon carcinoma cell line HCT116; assay: Caspase cascade activation (Ac-DEVD-R110 fluorogenic substrate) in HCT116 cells; details: HCT-116, incubated 24 or 48 h (Table I), 0.016 to 10 μM final, read-out: Caspase Activation Potency EC50 HCT116
Description: as §1, §2, §3

[3] = system: human hepatocellular carcinoma cell line SNU398; assay: Caspase cascade activation (Ac-DEVD-R110 fluorogenic substrate) in SNU398 cells; details: SNU-398, incubated 24 or 48 h (Table I), 0.016 to 10 μM final, read-out: Caspase Activation Potency EC50 SNU398
Description: as §1, §2, §3

Row | SMILES | pEC50 [1] | pEC50 [2] | pEC50 [3]
1 | Cc1cc(Nc2nc(S(C)(=O)=O)nc3c2COC3)[nH]n1 [Example 13, 5,7-Dihydro-N-(3-methyl-1H-pyrazol-5-yl)-2-(methylsulfonyl)furo[3,4-d]pyrimidin-4-amine] | < 5.00 | < 5.00 | < 5.00
2 | COc1cc(Nc2nc(SC)nc3c2CCC3)cc(OC)c1 [Example 21, 6,7-Dihydro-N-(3,5-dimethoxyphenyl)-2-(methylthio)-5H-cyclopenta[d]pyrimidin-4-amine] | 7.20 | < 5.00 | 5.59
3 | Cc1cc(Nc2nc(Sc3ccc(NC(=O)C4CC4)cc3)nc3c2COC3)[nH]n1 [Example 14, N-(4-(4-(3-Methyl-1H-pyrazol-5-ylamino)-5,7-dihydrofuro[3,4-d]pyrimidin-2-ylthio)phenyl)cyclopropanecarboxamide] | 5.56 | 5.62 | 5.87
4 | Cc1nc2c(c(Nc3cccc(Br)c3)n1)COC2 [Example 10, 5,7-Dihydro-N-(3-bromophenyl)-2-methylfuro[3,4-d]pyrimidin-4-amine] | < 5.00 | < 5.00 | < 5.00
5 | CSc1nc2c(c(Nc3cc(C)n[nH]3)n1)CCC2 [Example 20, 6,7-Dihydro-N-(5-methyl-1H-pyrazol-3-yl)-2-(methylthio)-5H-cyclopenta[d]pyrimidin-4-amine] | < 5.00 | ≤ 4.97 | 5.57
6 | COc1cc(Nc2nc(C)nc3c2COC3)cc(OC)c1 [Example 11, 5,7-Dihydro-N-(3,5-dimethoxyphenyl)-2-methylfuro[3,4-d]pyrimidin-4-amine] | 5.89 | < 5.00 | < 5.00
7 | COc1ccc(N(C)c2nc(Cl)nc3c2CN(C(=O)OCC2c4ccccc4-c4ccccc42)C3)cc1 [Example 31, (9H-Fluoren-9-yl)methyl 4-(N-(4-methoxyphenyl)-N-methylamino)-2-chloro-5H-pyrrolo[3,4-d]pyrimidine-6(7H)-carboxylate] | < 5.00 | < 5.00 | 5.30
8 | O=C(Nc1ccc(Sc2nc(Cl)nc3c2CN(C(=O)OCC2c4ccccc4-c4ccccc42)C3)cc1)C1CC1 [Example 29, (9H-Fluoren-9-yl)methyl 2-chloro-4-((4-(cyclopropanecarboxamido)phenyl)sulfanyl)-5H-pyrrolo[3,4-d]pyrimidine-6(7H)-carboxylate] | < 5.00 | < 5.00 | < 5.00
9 | CS(=O)(=O)c1nc2c(c(Sc3ccc(NC(=O)C4CC4)cc3)n1)COC2 [Example 15, N-(4-(5,7-Dihydro-2-(methylsulfonyl)furo[3,4-d]pyrimidin-4-ylthio)phenyl)cyclopropanecarboxamide] | 4.85 | ≤ 4.85 | 5.04
10 | CSc1nc2c(c(Nc3cc(C)n[nH]3)n1)COC2 [Example 12, 5,7-Dihydro-N-(3-methyl-1H-pyrazol-5-yl)-2-(methylthio)furo[3,4-d]pyrimidin-4-amine] | < 5.00 | < 5.00 | < 5.00
11 | CSc1nc2c(c(Nc3ccc(NC(=O)c4ccccc4)cc3)n1)CCC2 [Example 22, N-(4-(6,7-Dihydro-2-(methylthio)-5H-cyclopenta[d]pyrimidin-4-ylamino)phenyl)benzamide] | < 5.00 | < 5.00 | < 5.00
12 | Cc1cc(Nc2nc(N3CCN(C)CC3)nc3c2CNC3)[nH]n1 [Example 28, [2-(4-Methyl-piperazin-1-yl)-6,7-dihydro-5H-pyrrolo[3,4-d]pyrimidin-4-yl]-(5-methyl-2H-pyrazol-3-yl)-amine] | < 5.00 | < 5.00 | < 5.00
13 | Cc1cc(Nc2nc3c(c(Sc4ccc(NC(=O)C5CC5)cc4)n2)COC3)[nH]n1 [Example 16, N-(4-(2-(3-Methyl-1H-pyrazol-5-ylamino)-5,7-dihydrofuro[3,4-d]pyrimidin-4-ylthio)phenyl)cyclopropanecarboxamide] | < 5.00 | < 5.00 | < 5.00
14 | O=C(Nc1ccc(Nc2ncnc3c2CCC3)cc1)c1ccccc1 [Example 26, N-(4-(6,7-Dihydro-5H-cyclopenta[d]pyrimidin-4-ylamino)phenyl)benzamide] | < 5.00 | < 5.00 | < 5.00
15 | COc1cc(Nc2nc(Cl)nc3c2CN(C(=O)OCC2c4ccccc4-c4ccccc42)C3)cc(N(C)C)c1 [Example 30, (9H-Fluoren-9-yl)methyl 4-(3-(dimethylamino)-5-methoxyphenylamino)-2-chloro-5H-pyrrolo[3,4-d]pyrimidine-6(7H)-carboxylate] | 5.80 | < 5.00 | < 5.00
16 | COc1cc(Nc2ncnc3c2COC3)cc(OC)c1 [Example 9, 5,7-Dihydro-N-(3,5-dimethoxyphenyl)-furo[3,4-d]pyrimidin-4-amine] | 5.93 | < 5.00 | < 5.00
17 | CSc1nc2c(c(Nc3cccc(Br)c3)n1)CCC2 [Example 19, N-(3-Bromophenyl)-6,7-dihydro-2-(methylthio)-5H-cyclopenta[d]pyrimidin-4-amine] | < 5.00 | < 5.00 | < 5.00
18 | Cc1cc(Nc2nc(N3CCN(C)CC3)nc3c2COC3)[nH]n1 [Example 32, 5,7-Dihydro-N-(3-methyl-1H-pyrazol-5-yl)-2-(4-methylpiperazin-1-yl)furo[3,4-d]pyrimidin-4-amine] | < 5.00 | < 5.00 | < 5.00
19 | Cc1cc(Nc2nc(Cl)nc3c2CN(C(=O)OCC2c4ccccc4-c4ccccc42)C3)[nH]n1 [Example 17, (9H-Fluoren-9-yl)methyl 4-(3-methyl-1H-pyrazol-5-ylamino)-2-chloro-5H-pyrrolo[3,4-d]pyrimidine-6(7H)-carboxylate] | < 5.00 | < 5.00 | < 5.00
20 | COc1ccc(N(C)c2nc(SC)nc3c2COC3)cc1 [Example 8, 5,7-Dihydro-N-(4-methoxyphenyl)-N-methyl-2-(methylthio)furo[3,4-d]pyrimidin-4-amine] | 5.50 | 5.29 | 5.59
